Counter-ions that a name gives are not always drawn.
test system: GABA uptake; experiment: not given; settings: Yunger, L. M. et al., J. Pharm. Exp. Therap. 228 (1984) 109; cited from earlier work

Row | Compound | inhibition of GABA uptake, oral activity
1 | O=C(O)CC1CCN(CCC=C(c2ccccc2)c2ccccc2)C1 (stereo not drawn) [SK&F 100561, N-(4,4-diphenyl-3-buten-1-yl)homo-β-proline] | orally active inhibitors of GABA uptake
2 | O=C(O)C1=CCCN(CCC=C(c2ccccc2)c2ccccc2)C1 [SK&F 100330A, N-(4,4-diphenyl-3-buten-1-yl)guvacine] | orally active inhibitors of GABA uptake
3 | O=C(O)C1CCCN(CCC=C(c2ccccc2)c2ccccc2)C1 (stereo not drawn) [SK&F 89976A, N-(4,4-diphenyl-3-buten-1-yl)nipecotic acid] | orally active inhibitors of GABA uptake
4 | O=C(O)C1CCCN(CCC=C(c2ccccc2)c2cccs2)C1 (stereo not drawn) [SK&F 100604J, N-(4-phenyl-4-(2-thienyl)-3-buten-1-yl)nipecotic acid] | orally active inhibitors of GABA uptake

same assay, conditions: background art; cited from earlier work

Row | Compound | inhibitor of GABA uptake from the synaptic cleft into presynaptic nerve terminals and glial cells
5 | O=C(O)C1CCCNC1 (stereo not drawn) [nipecotic acid, piperidine-3-carboxylic acid] | well-known and potent inhibitor of GABA uptake

test system: [^3 H]-GABA uptake; experiment: Inhibition of [^3 H]-GABA uptake in vitro (Male Wistar rat cortical tissue homogenate); format: biochemical; settings: tris HCl buffer pH 7.5, 60 min at 30° C.
Description: Values for in vitro inhibition of [^3 H]-GABA uptake for these compounds were assessed essentially by the method of Fjalland (Acta Pharmacol.Toxicol. 42 (1978) 73-76). Male Wistar rat cortical tissue was gently homogenized by hand using a glass/PTFE homogenizer in 10 volumes of 0.32 M sucrose. Incubation was performed in a 40 mM tris HCl buffer (pH 7.5 at 30° C.) containing […], […], 4 mM MgSO4, 2.3 mM CaCl2 and 10 mM glucose, for 60 min. at 30° C.) Values for inhibition of GABA uptake for some representative compounds are recorded in Table I.

Row | IC50 | Compound
6 | 51 nM | O=C(O)[C@@H]1CCCN(CCOCCC(c2ccccc2)c2ccccc2)C1 [Example 14, (R)-N-(2-(3,3-Diphenyl-1-propyloxy)ethyl)-3-piperidinecarboxylic acid hydrochloride]
7 | 43 nM | O=C(O)[C@@H]1CCCN(CCOCCC(c2ccccc2)c2cccc(C(F)(F)F)c2)C1 (stereo partly drawn) [Example 18, (R)-N-(2-(3-Phenyl-3-(3-(trifluoromethyl)phenyl)-1-propyloxy)ethyl)-3-piperidinecarboxylic acid hydrochloride]
8 | 670 nM | O=C(O)[C@@H]1CCCN(CCCCCCN(c2ccccc2)c2ccccc2)C1 [Example 4, (R)-N-(6-(Diphenylamino)-1-hexyl)-3-piperidinecarboxylic acid hydrochloride]
9 | 222 nM | O=C(O)[C@@H]1CCCN(CCCCCCCN(c2ccccc2)c2ccccc2)C1 [Example 8, (R)-N-(7-(Diphenylamino)-1-heptyl)-3-piperidinecarboxylic acid hydrochloride]
10 | 49 nM | O=C(O)C1=CCCN(CCOCCC(c2ccccc2)c2ccccc2)C1 [Example 16, N-(2-(3,3-Diphenyl-1-propyloxy)ethyl)-1,2,5,6-tetrahydro-3-pyridinecarboxylic acid hydrochloride]
11 | 108 nM | O=C(O)[C@@H]1CCCN(CCOCCN(c2ccccc2)c2ccccc2)C1 [Example 2, (R)-N-(2-(2-(Diphenylamino)ethoxy)ethyl)-3-piperidinecarboxylic acid hydrochloride]

test system: not given; experiment: not given; settings: background art; cited from earlier work

Row | Compound | ability to cross the blood-brain barrier
12 | O=C(O)C1CCCNC1 (stereo not drawn) [nipecotic acid, piperidine-3-carboxylic acid] | unable to cross the blood-brain barrier

From US5198451A, “Heterocyclic carboxylic acids” (Novo Nordisk A/S, priority 1989, dated 1993)
